In ChEMBL document CHEMBL1137449, “A refined agonist pharmacophore for protease activated receptor 2” (Bioorg Med Chem Lett, 2007):
Activity calls are given as the source filed them. The rule behind the calls is not given here. Numbered stars: 1 amine (or outer) side, 2 acyl side, 3 side chain; on linkers, the order of the positions; unused ones are H or OH. Square brackets hold non-standard residues; d marks the D form. Peptide text beside a SMILES is read from it. * marks the point of attachment. Tyr(3,5-(NO2)2) = N[C@@H](Cc1cc([N+](=O)[O-])c(O)c([N+](=O)[O-])c1)C(=O)O; Tyr(3-NO2) = N[C@@H](Cc1ccc(O)c([N+](=O)[O-])c1)C(=O)O; X2 = CCOP(=O)(Cc1ccc(C[C@H](N[*:1])C(=O)[*:2])cc1)OCC; Phe(4-NO2) = N[C@@H](Cc1ccc([N+](=O)[O-])cc1)C(=O)O; Phe(4-tBu) = CC(C)(C)c1ccc(C[C@H](N)C(=O)O)cc1; Phe(4-I) = N[C@@H](Cc1ccc(I)cc1)C(=O)O; Oxazole4CO(2-Me) = Cc1nc(C(=O)*)co1; hTyr = N[C@@H](CCc1ccc(O)cc1)C(=O)O; hPhe = N[C@@H](CCc1ccccc1)C(=O)O

What follows are compounds tested against Proteinase-activated receptor 2 (Homo sapiens) (UniProt P55085) (assay: Agonist activity at PAR2 expressed in 2-furoyl-LIGRLI-NH2 treated human HT29 cells assessed as intracellular calcium response). Settings: HT-29.
Type: functional, cell-based

| Activity | SMILES |
| --- | --- |
| inactive | CC[C@H](C)[C@H](NC(=O)[C@H](Cc1ccc([N+](=O)[O-])cc1)NC(=O)[C@H](CCCNC(=N)N)NC(=O)CNC(=O)[C@@H](NC(=O)[C@H](CC(C)C)NC(=O)[C@@H](N)CO)[C@@H](C)CC)C(N)=O (H-SLIGR[Phe(4-NO2)]I-NH2) |

What follows are compounds tested against T1, Proteinase-activated receptor 2 (Homo sapiens, UniProt P55085) (assay: Agonist activity at PAR2 expressed in human HT29 cells assessed as intracellular calcium release). Settings: not given.
T1 sequence (P55085 whole entry): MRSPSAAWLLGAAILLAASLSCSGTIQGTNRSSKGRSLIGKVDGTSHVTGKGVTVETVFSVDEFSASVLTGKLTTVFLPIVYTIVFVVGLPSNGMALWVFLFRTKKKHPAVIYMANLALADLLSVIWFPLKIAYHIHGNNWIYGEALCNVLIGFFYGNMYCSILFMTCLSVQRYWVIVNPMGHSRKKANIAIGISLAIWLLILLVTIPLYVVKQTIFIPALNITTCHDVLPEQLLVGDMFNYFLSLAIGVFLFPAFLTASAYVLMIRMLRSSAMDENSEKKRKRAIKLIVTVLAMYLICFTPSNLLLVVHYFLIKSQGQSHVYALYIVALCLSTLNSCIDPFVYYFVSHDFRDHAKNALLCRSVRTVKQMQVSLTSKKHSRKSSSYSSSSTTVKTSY
Type: functional, cell-based, HT-29

| EC50 [nM] | SMILES |
| --- | --- |
| 400 | CC[C@H](C)[C@H](NC(=O)[C@H](Cc1ccc([N+](=O)[O-])cc1)NC(=O)[C@H](CCCNC(=N)N)NC(=O)CNC(=O)[C@@H](NC(=O)[C@H](CC(C)C)NC(=O)[C@@H](N)CO)[C@@H](C)CC)C(N)=O (H-SLIGR[Phe(4-NO2)]I-NH2) |
| 600 | CC[C@H](C)[C@H](NC(=O)[C@H](Cc1ccc(C(C)(C)C)cc1)NC(=O)[C@H](CCCNC(=N)N)NC(=O)CNC(=O)[C@@H](NC(=O)[C@H](CC(C)C)NC(=O)[C@@H](N)CO)[C@@H](C)CC)C(N)=O (H-SLIGR[Phe(4-tBu)]I-NH2) |
| 1400 | CC[C@H](C)[C@H](NC(=O)[C@H](Cc1cc([N+](=O)[O-])c(O)c([N+](=O)[O-])c1)NC(=O)[C@H](CCCNC(=N)N)NC(=O)CNC(=O)[C@@H](NC(=O)[C@H](CC(C)C)NC(=O)[C@@H](N)CO)[C@@H](C)CC)C(N)=O (H-SLIGR[Tyr(3,5-(NO2)2)]I-NH2) |
| 1400 | CC[C@H](C)[C@H](NC(=O)[C@H](Cc1ccc(O)c([N+](=O)[O-])c1)NC(=O)[C@H](CCCNC(=N)N)NC(=O)CNC(=O)[C@@H](NC(=O)[C@H](CC(C)C)NC(=O)[C@@H](N)CO)[C@@H](C)CC)C(N)=O (H-SLIGR[Tyr(3-NO2)]I-NH2) |
| 1800 | CC[C@H](C)[C@H](NC(=O)[C@H](CCc1ccccc1)NC(=O)[C@H](CCCNC(=N)N)NC(=O)CNC(=O)[C@@H](NC(=O)[C@H](CC(C)C)NC(=O)[C@@H](N)CO)[C@@H](C)CC)C(N)=O (H-SLIGR[hPhe]I-NH2) |
| 3000 | CC[C@H](C)[C@H](NC(=O)[C@H](CCc1ccc(O)cc1)NC(=O)[C@H](CCCNC(=N)N)NC(=O)CNC(=O)[C@@H](NC(=O)[C@H](CC(C)C)NC(=O)[C@@H](N)CO)[C@@H](C)CC)C(N)=O (H-SLIGR[hTyr]I-NH2) |
| 320 | CC[C@H](C)[C@H](NC(=O)[C@H](CC(C)C)NC(=O)c1coc(C)n1)C(=O)NCC(=O)N[C@@H](CCCNC(=N)N)C(=O)N[C@@H](Cc1ccc(I)cc1)C(N)=O ({Oxazole4CO(2-Me)}-LIGR[Phe(4-I)]-NH2) |

| SMILES | EC50 [nM] |
| --- | --- |
| CCOP(=O)(Cc1ccc(C[C@H](NC(=O)[C@H](CCCNC(=N)N)NC(=O)CNC(=O)[C@@H](NC(=O)[C@H](CC(C)C)NC(=O)[C@@H](N)CO)[C@@H](C)CC)C(=O)N[C@H](C(N)=O)[C@@H](C)CC)cc1)OCC (H-SLIGR[X2]I-NH2) | 1300 |
